The target of this assay is T1, rat adrenergic α1A receptor (Rattus norvegicus, UniProt P43140).
T1 construct: rat adrenergic α1A receptor obtained from Wistar Rat submaxillary glands; from tissue; host or cells: Wistar Rat submaxillary glands
T1 sequence (P43140 1-466): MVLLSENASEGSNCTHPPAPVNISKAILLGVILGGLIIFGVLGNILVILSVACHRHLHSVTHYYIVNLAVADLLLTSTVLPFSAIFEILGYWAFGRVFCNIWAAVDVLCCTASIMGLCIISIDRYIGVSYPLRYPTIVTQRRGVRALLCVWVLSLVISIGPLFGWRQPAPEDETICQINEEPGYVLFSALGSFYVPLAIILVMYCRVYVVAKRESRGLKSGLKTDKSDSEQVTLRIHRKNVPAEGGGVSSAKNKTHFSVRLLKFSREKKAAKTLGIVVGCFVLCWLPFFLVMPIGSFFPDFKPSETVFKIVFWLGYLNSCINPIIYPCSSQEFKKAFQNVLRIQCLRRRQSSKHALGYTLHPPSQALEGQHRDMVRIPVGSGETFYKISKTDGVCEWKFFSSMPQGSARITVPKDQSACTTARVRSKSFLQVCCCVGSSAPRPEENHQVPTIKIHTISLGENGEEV
Kind of assay: Adrenergic α1A radioligand binding assay. The following applies: [3H]Prozosin specific binding, read-out: Percent Inhibition of ligand binding, Adrenergic (0.1 μM ligand conc.) α1A. As for the experimental part:
To evaluate in radioligand binding assays the activity of compounds of the invention, rat adrenergic α1A receptor obtained from Wistar Rat submaxillary glands (Michel, A. D. et al., Br. J. Pharmacol. (1989), 98:883] in a modified Tris-HCl buffer (50 mM Tris-HCl buffer, pH 7.4, 0.5 mM EDTA) was used. Compounds of the invention were incubated with 0.25 nM [^3H]Prozosin for 60 min. at 25° C. Non-specific binding was estimated in the presence of 10 μM phentolamine. Receptor proteins were filtered and washed, the filters were then counted to determine [^3H]Prozosin specifically bound. Compounds of the invention were screened at 1 μM or lower, using 1% DMSO as vehicle. Compounds of the invention were tested in this biochemical assay. Biochemical assay results for representative compounds were presented as the percent inhibition of specific binding in Table 3.

For orientation: inhibition means the drop in the measured response relative to a control, in per cent. In the case of `C/C(=C\n1c2c(c3cc(C)ccc31)C1CCN(C2)C1)c1ccncc1` (stereo not drawn) [Compound 44], the inhibition at 0.1 µM is -7%.
Regarding `C/C(=C\n1c2c(c3cc(C)ccc31)C1CCN(C2)C1)c1ccccc1F` (stereo not drawn) [Compound 38], the inhibition at 0.1 µM was determined as 14%.
Turning to `C/C(=C\n1c2c(c3cc(C)ccc31)C1CCN(C2)C1)c1ccc(Cl)cc1Cl` (stereo not drawn) [Compound 33], the inhibition at 0.1 µM was 3%.
As for `Cc1ccc2c(c1)c1c(n2C(=O)Cc2ccc(Cl)cc2)CN2CCC1C2` (stereo not drawn) [Compound 36], the inhibition at 0.1 µM was -18%.
For the compound `COc1ccc(/C(C)=C/n2c3c(c4cc(C)ccc42)C2CCN(C3)C2)cc1` (stereo not drawn) [Compound 45], the inhibition at 0.1 µM was 24%.
With `C/C(=C\n1c2c(c3cc(C)ccc31)C1CCN(C2)C1)c1ccc(Cl)cc1` (stereo not drawn) [Compound 32], the inhibition at 0.1 µM was 36%.

Source of the values: patent US9271971B2, “Pyrido[3,4-B]indoles and methods of use” (Medivation Technologies, Inc., priority 2009, dated 2016).
